Data taken from patent US20260373266A1, “PROTEIN DEGRADERS AND USES THEREOF” (KYMERA THERAPEUTICS, INC., priority 2022, published 2026).
Read-outs that look alike come from different tables or passages of the source.

Target: T1, DCAF1 WD40 domain (residues 1077-1390) (Homo sapiens, UniProt Q9Y4B6)
T1 construct: DCAF1 WD40 domain (residues 1077-1390)
Experiment: DCAF1 binding assay by SPR (Biacore 8K+), DCAF1-3 KD
Settings: 25 °C

T1 sequence (Q9Y4B6 1077-1390): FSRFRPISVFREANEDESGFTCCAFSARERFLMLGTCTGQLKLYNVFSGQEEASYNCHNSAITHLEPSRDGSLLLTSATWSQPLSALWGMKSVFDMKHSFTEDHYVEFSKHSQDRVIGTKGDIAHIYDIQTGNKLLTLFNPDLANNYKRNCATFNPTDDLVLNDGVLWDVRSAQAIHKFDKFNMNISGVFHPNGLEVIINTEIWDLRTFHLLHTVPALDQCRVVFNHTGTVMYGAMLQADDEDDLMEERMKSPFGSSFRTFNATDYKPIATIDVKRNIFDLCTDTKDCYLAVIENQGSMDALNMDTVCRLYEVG

Row | Kd (read-out: DCAF1-3 SPR (KD)) | Kd (DCAF1-3 SPR (KD)) | Structure (SMILES)
1 | > 200 µM |  | C=CC(=O)Nc1ccc(-c2n[nH]cc2C(=O)N[C@@H](CC(N)=O)c2cccc(Cl)c2)cc1 [I-474]
2 | > 200 µM |  | Fc1cccc(N2CCCC(C3(c4cc(N5CCOCC5)ccn4)CC3(F)F)C2)c1 (stereo not shown) [I-261]
3 | > 200 µM |  | COc1cc(N[C@@H]2CCCN(c3cccc(F)c3)C2)cc(N2CCOCC2)c1 [I-547]
4 | < 10 µM |  | Fc1cccc(N2CCC[C@@H](Nc3cc(N4CC5CCC(CC5)C4)ccn3)C2)c1 [I-618]
5 | < 10 µM |  | O=C1NCCN1Cc1cccc(N2CCC[C@H]3[C@@H]2CCN3c2cc(N3CCCCC3)ccn2)c1 [I-960]
6 | > 200 µM |  | NCCCCCCCCCCCCCCC(=O)c1[nH]cc(C(=O)N[C@@H](CC(N)=O)c2cccc(Cl)c2)c1-c1ccccc1F [I-663]
7 | > 200 µM |  | CC(C(N)=O)[C@H](NC(=O)c1cn[nH]c1-c1ccccc1F)c1cccc(Cl)c1 (stereo partly shown) [I-141]
8 | > 200 µM |  | OC[C@H]1CC[C@H](Nc2cc(N3CCCCC3)ccn2)CC1 [I-847]
9 | 10 to 100 µM |  | c1ccc(-c2cc(N3CCC[C@@H](Nc4cc(N5CCOCC5)ccn4)C3)ccn2)nc1 [I-437]
10 | > 200 µM |  | Fc1cccc(N2CCC[C@@H](Nc3ncc(N4CCOCC4)o3)C2)c1 [I-327]
11 | 100 to 200 µM |  | c1ccc2c(N3CCC[C@@H](Nc4cc(N5CCOCC5)ccn4)C3)nncc2c1 [I-65]
12 | < 10 µM |  | Cc1ccccc1[C@H](CC(N)=O)NC(=O)c1cn[nH]c1-c1ccccc1F [I-105]
13 | < 10 µM |  | COCCC(=O)c1[nH]cc(C(=O)N[C@@H](CC(N)=O)c2cccc(Cl)c2)c1-c1ccccc1F [I-524]
14 | > 200 µM |  | c1ccc(N2CCC[C@@H](Nc3cc(N4CCOCC4)ncn3)C2)nc1 [I-11]
15 | > 200 µM |  | Cc1cnc(N2CCOCC2)cc1N[C@@H]1CCCN(c2cccc(F)c2)C1 [I-404]
16 | > 200 µM |  | Fc1cccc(N2CCC[C@@H](Nc3nccc(N4CCOCC4)n3)C2)c1 [I-370]
17 | < 10 µM |  | Nc1ccc(F)cc1N1CCC[C@@H](Nc2cc(N3CCOCC3)ccn2)C1 [I-682]
18 | < 10 µM |  | NC(=O)C[C@H](NC(=O)c1c[nH]cc1-c1ccccc1F)c1cccc(Cl)c1 [I-90]
19 | < 10 µM |  | Fc1cccc(N2CCC[C@@H](N3CCc4c(N5CCOCC5)ccnc43)C2)c1 [I-196]
20 | 100 to 200 µM |  | Fc1cccc(N2CCC[C@H]3[C@@H]2CCN3c2cc(N3CCCCC3)ccn2)c1 [I-580]
21 | < 10 µM |  | CO/N=C(/c1ccccc1)c1[nH]cc(C(=O)N[C@@H](CC(N)=O)c2cccc(Cl)c2)c1-c1c(F)ccc(F)c1C [I-758]
22 |  | < 10 µM | Cc1c(F)ccc(F)c1-c1c(C(=O)N[C@@H](CC(N)=O)c2cccc(Cl)c2)cn(C)c1C#N [I-887, (S)—N-(3-amino-1-(3-chlorophenyl)-3-oxopropyl)-5-cyano-4-(3,6-difluoro-2-methylphenyl)-1-methyl-1H-pyrrole-3-carboxamide]
23 | < 10 µM |  | N#Cc1[nH]cc(C(=O)N[C@@H](CC(N)=O)c2cccc(Cl)c2)c1-c1ccccc1F [I-598]
24 | > 200 µM |  | NC(=O)CN(c1cc(N2CCOCC2)ccn1)[C@@H]1CCCN(c2cccc(F)c2)C1 [I-272]
25 | < 10 µM |  | NC(=O)C[C@H](NC(=O)c1cn[nH]c1C1CCOCC1)c1cccc(Cl)c1 [I-344]
26 | > 200 µM |  | Cc1sc2c(c1C)C(c1ccc(Cl)cc1)=N[C@@H](CC(=O)NCCOCCOCCOCCOCCOCCOCCOCCn1cc(C(=O)N[C@@H](CC(N)=O)c3cccc(Cl)c3)c(-c3ccccc3F)n1)c1nnc(C)n1-2 [I-888]
27 | > 200 µM |  | Fc1cccc(N2CCC[C@@H](Nc3nccc(N4CCNCC4)n3)C2)c1 [I-314]

Row | Kd (read-out: DCAF1-3 SPR (KD)) | Kd (DCAF1-3 SPR (KD)) | Structure (SMILES)
28 | > 200 µM |  | COCCn1ncc(C(=O)N[C@@H](CC(N)=O)c2cccc(Cl)c2)c1-c1ccccc1F [I-88]
29 | > 200 µM |  | Fc1cccc(N2C[C@H](Nc3cc(N4CCOCC4)ncn3)C3CCC[C@H]2C3)c1 (stereo in doubt) [I-384]
30 | < 10 µM |  | Cc1cccc(N2CCC[C@@H]3[C@H]2CCN3c2cc(N3CC4CC(C4)C3)ccn2)c1 [I-706]
31 | > 200 µM |  | CS(=O)(=O)CCc1ccc(F)c(-c2[nH]ncc2C(=O)N[C@@H](CC(N)=O)c2cccc(Cl)c2)c1 [I-247]
32 | < 10 µM |  | Cc1c(F)ccc(F)c1-c1[nH]ncc1C(=O)N[C@H](CC(N)=O)c1ccc(F)c(Cl)c1 [I-818]
33 | > 200 µM |  | Fc1cccc(N2CCC[C@@H](N(c3ccccc3)c3cc(N4CCOCC4)ccn3)C2)c1 [I-273]
34 | < 10 µM |  | Cc1cccc(F)c1-c1c(C(=O)N[C@@H](CC(N)=O)c2cccc(Cl)c2)c[nH]c1-c1ccccn1 [I-656]
35 | > 200 µM |  | c1ccc2c(N3CCC[C@@H](Nc4cc(N5CCOCC5)ccn4)C3)n[nH]c2c1 [I-111]
36 | > 200 µM |  | C=CC(=O)N(C)CCN(C)c1ccnc(N[C@@H]2CCCN(c3cccc(F)c3)C2)c1 [I-448]
37 | 100 to 200 µM |  | COCCN(c1nccc(N2CCOCC2)n1)[C@@H]1CCCN(c2cccc(F)c2)C1 [I-40]
38 | 10 to 100 µM |  | c1ccc(N2CCC[C@@H](Nc3cc(N4CCOCC4)ccn3)C2)cc1 [I-75]
39 | < 10 µM |  | Cc1sc2c(c1C)C(c1ccc(Cl)cc1)=N[C@@H](CC(=O)NCCOCCOCCOCCOCCC1CCN(c3ccnc(N4CC[C@@H]5[C@H]4CCCN5c4cccc(F)c4)c3)CC1)c1nnc(C)n1-2 [I-890]
40 | < 10 µM |  | Cc1c(F)ccc(F)c1-c1[nH]ncc1C(=O)N[C@@H](CC(=O)N1CC(O)C1)c1cccc(Cl)c1 [I-877]
41 | > 200 µM |  | NCCc1cccc(N2CCC[C@@H](Nc3cc(N4CCOCC4)ccn3)C2)c1 [I-865]
42 | 10 to 100 µM |  | COCCn1cc(C(=O)N[C@@H](CC(N)=O)c2cccc(Cl)c2)c(-c2ccccc2F)n1 [I-120]
43 | > 200 µM |  | OCCN(c1nc(N2CCOCC2)c[nH]1)[C@H]1CCCN(c2cccc(F)c2)C1 [I-372]
44 | 10 to 100 µM |  | OCCc1cccc(N2CCC[C@@H](Nc3cc(N4CCOCC4)ccn3)C2)c1 [I-861]
45 | > 200 µM |  | NC(=O)C[C@H](NC(=O)c1n[nH]c2c1NCCC2)c1cccc(Cl)c1 [I-299]
46 | > 200 µM |  | O[C@@H]1CCCN(c2ccnc(N3CC[C@H]4[C@@H]3CCCN4c3cccc(F)c3)c2)C1 [I-799]
47 | > 200 µM |  | Fc1cccc(N2CCCC(n3cnc4nccc(N5CCOCC5)c43)C2)c1 (stereo not shown) [I-324]
48 | 10 to 100 µM |  | NC(=O)CCc1cccc(N2CCC[C@@H]3[C@H]2CCN3c2cc(N3CCCCC3)ccn2)c1 [I-879]
49 | < 10 µM |  | NC(=O)C[C@H](NC(=O)c1c[nH]c(Cc2ccccc2)c1-c1c(F)cccc1F)c1cccc(Cl)c1 [I-566]
50 | < 10 µM |  | Cc1cc(Cl)cc(C)c1-c1c(C(=O)N[C@@H](CC(N)=O)c2cccc(Cl)c2)c[nH]c1C(=O)c1ccccc1 [I-969]
51 | > 200 µM |  | CCN1CCN(c2ccnc(N[C@@H]3CCCN(c4cccc(F)c4)C3)n2)CC1 [I-316]
52 | 10 to 100 µM |  | NC(=O)Cc1ccc(F)c(-c2[nH]ncc2C(=O)N[C@@H](CC(N)=O)c2cccc(Cl)c2)c1 [I-521]
53 | < 10 µM |  | Cc1ccc(-c2[nH]ncc2C(=O)N[C@@H](CC(N)=O)c2cccc(Cl)c2)c(F)c1 [I-506]
54 | > 200 µM |  | NC(=O)C[C@H](NC(=O)c1c(-c2ccccc2F)cc[nH]c1=O)c1cccc(Cl)c1 [I-216]

Row | Kd (read-out: DCAF1-3 SPR (KD)) | Kd (DCAF1-3 SPR (KD)) | Structure (SMILES)
55 | > 200 µM |  | Oc1ccc(N2CCOCC2)cc1N[C@@H]1CCCN(c2cccc(F)c2)C1 [I-325]
56 | 10 to 100 µM |  | CN(c1ccnc(N[C@@H]2CCCN(c3cccc(F)c3)C2)c1)C1CCCC1 [I-555]
57 | > 200 µM |  | C=CC(=O)N1CCC1C(=O)N1CCN(c2ccnc(N[C@@H]3CCCN(c4cccc(F)c4)C3)c2)CC1 (stereo partly shown) [I-464]
58 | > 200 µM |  | C=CC(=O)Nc1ccc2c(C(=O)N[C@@H](CC(N)=O)c3cccc(Cl)c3)n[nH]c2c1 [I-301]
59 | > 200 µM |  | O=C1C[C@@H]([C@H](NC(=O)c2c[nH]nc2-c2ccccc2F)c2cccc(Cl)c2)CN1 [I-223]
60 | 100 to 200 µM |  | Fc1ccc(N2CCC[C@@H](Nc3cc(N4CCOCC4)ncn3)C2)cc1 [I-7]
61 | < 10 µM |  | NC(=O)C[C@H](NC(=O)c1cn[nH]c1Cc1ccccc1)c1cccc(Cl)c1 [I-543]
62 | > 200 µM |  | COc1cnc(N2CCOCC2)cc1N[C@@H]1CCCN(c2cccc(F)c2)C1 [I-407]
63 | 100 to 200 µM |  | Cc1sc2c(c1C)C(c1ccc(Cl)cc1)=N[C@@H](CC(=O)NCCOCCOCCOCCOCCOCCn1cc(C(=O)N[C@@H](CC(N)=O)c3cccc(Cl)c3)c(-c3ccccc3F)n1)c1nnc(C)n1-2 [I-489]
64 | > 200 µM |  | C=CC(=O)n1cc(-c2n[nH]cc2C(=O)N[C@@H](CC(N)=O)c2cccc(Cl)c2)cn1 [I-472]
65 | 10 to 100 µM |  | N#Cc1ccccc1N1CCC[C@@H](Nc2cc(N3CCOCC3)ccn2)C1 [I-770]
66 | > 200 µM |  | COCCc1[nH]cc(C(=O)N[C@@H](CC(N)=O)c2cccc(Cl)c2)c1-c1ccccc1F [I-362]
67 | > 200 µM |  | NC(=O)C[C@H](NC(=O)c1cnn(CCc2ccccc2)c1-c1ccccc1F)c1cccc(Cl)c1 [I-170]
68 | < 10 µM |  | Cc1ccc(F)c(C)c1-c1c(C(=O)N[C@@H](CC(N)=O)c2cccc(Cl)c2)c[nH]c1C(=O)COCCOCCOCCOCCOCCNC(=O)C[C@@H]1N=C(c2ccc(Cl)cc2)c2c(sc(C)c2C)-n2c(C)nnc21 [I-909]
69 | 10 to 100 µM |  | c1cncc(-c2ccnc(N3CCC[C@@H](Nc4cc(N5CCOCC5)ccn4)C3)n2)c1 [I-416]
70 | 10 to 100 µM |  | Fc1ccc(N2CCC[C@@H](Nc3cc(N4CCOCC4)ccn3)C2)cc1F [I-74]
71 | 10 to 100 µM |  | NCCNC(=O)c1ccc(N2CCCCC2)cc1N[C@@H]1CCCN(c2cccc(F)c2)C1 [I-991]
72 | > 200 µM |  | NC(=O)CCN(c1cc(N2CCOCC2)ccn1)[C@@H]1CCCN(c2cccc(F)c2)C1 [I-291]
73 | > 200 µM |  | NC(=O)C[C@H](NC(=O)c1cnn(Cc2cncs2)c1-c1ccccc1F)c1cccc(Cl)c1 [I-167]
74 | 10 to 100 µM |  | COCCN(c1cc(N2CCCCC2)ccn1)[C@@H]1CCCN(c2cccc(F)c2)C1 [I-596]
75 | 10 to 100 µM |  | c1ccc(N2CCC[C@H]3[C@@H]2CCN3c2cc(N3CC4CC(C4)C3)ccn2)cc1 [I-710]
76 | < 10 µM |  | NC(=O)C[C@H](NC(=O)c1c[nH]c(C(=O)c2ccccc2)c1-c1c(F)cc(Cl)cc1F)c1cccc(Cl)c1 [I-946]
77 | > 200 µM |  | Fc1cccc(N2CCC[C@@H](Nc3cccc(N4CCOCC4)c3)C2)c1 [I-380]
78 | < 10 µM |  | Cc1sc2c(c1C)C(c1ccc(Cl)cc1)=N[C@@H](CC(=O)NCCOCCOCCOCCOCCOCC(=O)c1[nH]cc(C(=O)N[C@@H](CC(=O)N(C)C)c3cccc(Cl)c3)c1-c1c(F)ccc(F)c1C)c1nnc(C)n1-2 [I-911]
79 | 10 to 100 µM |  | NC(=O)C[C@H](NC(=O)c1cn[nH]c1-c1cnsc1)c1cccc(Cl)c1 [I-158]
